In PubChem BioAssay AID248 (DTP/NCI, 2004):
“And” between values parts separate entries of the source, which are not always exact repeats. Equal entries are not always repeated. Toxic doses and inconclusive results are not listed.

Tested on: L1210 leukemia ip in BDF1 mice, survival T/C
Assay: NCI In Vivo Anticancer Drug Screen. Data for tumor model L1210 Leukemia (intraperitoneal) in B6D2F1 (BDF1) mice
Details: endpoint: mean survival time, higher = longer survival
In short: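 Tumor was transplanted into mice, which were then dosed with test compound or vehicle alone. Survival was recorded for each group, and the treated figure was expressed relative to the control figure.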

[1] = dose: 100.0 mg/kg/injection, schedule: Q01DX001 (ip), vehicle: saline
[2] = dose: 200.0 mg/kg/injection, schedule: Q01DX001 (ip), vehicle: saline
[3] = dose: 400.0 mg/kg/injection, schedule: Q01DX001 (ip), vehicle: saline
[4] = dose: 100.0 mg/kg/injection, schedule: Q01DX009 (ip), vehicle: Klucel (hydroxypropylcellulose) (HPC)
[5] = dose: 100.0 mg/kg/injection, schedule: Q04DX002 (ip), vehicle: Klucel (hydroxypropylcellulose) (HPC)
[6] = dose: 200.0 mg/kg/injection, schedule: Q01DX009 (ip), vehicle: Klucel (hydroxypropylcellulose) (HPC)
[7] = dose: 200.0 mg/kg/injection, schedule: Q04DX002 (ip), vehicle: Klucel (hydroxypropylcellulose) (HPC)
[8] = dose: 400.0 mg/kg/injection, schedule: Q01DX009 (ip), vehicle: Klucel (hydroxypropylcellulose) (HPC)
[9] = dose: 400.0 mg/kg/injection, schedule: Q04DX002 (ip), vehicle: Klucel (hydroxypropylcellulose) (HPC)
[10] = dose: 50.0 mg/kg/injection, schedule: Q01DX001 (ip), vehicle: saline
[11] = dose: 25.0 mg/kg/injection, schedule: Q04DX003 (ip), vehicle: Klucel (hydroxypropylcellulose) (HPC)
[12] = dose: 50.0 mg/kg/injection, schedule: Q01DX009 (ip), vehicle: Klucel (hydroxypropylcellulose) (HPC)
[13] = dose: 50.0 mg/kg/injection, schedule: Q04DX003 (ip), vehicle: Klucel (hydroxypropylcellulose) (HPC)
[14] = dose: 100.0 mg/kg/injection, schedule: Q04DX003 (ip), vehicle: Klucel (hydroxypropylcellulose) (HPC)
[15] = dose: 100.0 mg/kg/injection, schedule: Q04DX003 (ip), vehicle: saline
[16] = dose: 200.0 mg/kg/injection, schedule: Q04DX003 (ip), vehicle: saline
[17] = dose: 400.0 mg/kg/injection, schedule: Q04DX003 (ip), vehicle: saline
[18] = dose: 200.0 mg/kg/injection, schedule: Q04DX003 (ip), vehicle: Klucel (hydroxypropylcellulose) (HPC)
[19] = dose: 400.0 mg/kg/injection, schedule: Q04DX003 (ip), vehicle: Klucel (hydroxypropylcellulose) (HPC)
[20] = dose: 100.0 mg/kg/injection, schedule: Q04DX003 (ip), vehicle: saline with Tween-80
[21] = dose: 200.0 mg/kg/injection, schedule: Q04DX003 (ip), vehicle: saline with Tween-80
[22] = dose: 400.0 mg/kg/injection, schedule: Q04DX003 (ip), vehicle: saline with Tween-80

CC(=O)Nc1ccc(S(=O)(=O)NC(C(=O)O)C(=O)O)cc1
T/C [1]: 100 % of control
T/C [2]: 103 % of control
T/C [3]: 103 % of control

CCC(=O)N/N=C(\N)N[N+](=O)[O-]
T/C (dose: 87.5 mg/kg/injection, schedule: Q04DX003 (ip), vehicle: Klucel (hydroxypropylcellulose) (HPC)): 102 % of control
T/C (dose: 175.0 mg/kg/injection, schedule: Q04DX003 (ip), vehicle: Klucel (hydroxypropylcellulose) (HPC)): 105 % of control
T/C (dose: 350.0 mg/kg/injection, schedule: Q04DX003 (ip), vehicle: Klucel (hydroxypropylcellulose) (HPC)): 103 % of control

NC(=O)N/N=C1/C=C2CCCCC2CC1 (centres undefined)
T/C (dose: 75.0 mg/kg/injection, schedule: Q01DX001 (ip), vehicle: other): 101 % of control
T/C (dose: 150.0 mg/kg/injection, schedule: Q01DX001 (ip), vehicle: other): 95 % of control
T/C (dose: 300.0 mg/kg/injection, schedule: Q01DX001 (ip), vehicle: other): 100 % of control

CC1(C)CC(OP(=O)(Cl)OC2CC(C)(C)N(O)C(C)(C)C2)CC(C)(C)N1O
T/C (dose: 100.0 mg/kg/injection, schedule: Q01DX001 (ip), vehicle: water): 97 % of control
T/C (dose: 200.0 mg/kg/injection, schedule: Q01DX001 (ip), vehicle: water): 94 % of control
T/C (dose: 400.0 mg/kg/injection, schedule: Q01DX001 (ip), vehicle: water): 94 % of control

O=S(=O)(c1ccccc1)S(=O)(=O)c1ccccc1
T/C [4]: 107 % of control
T/C [5]: 105 % of control
T/C [6]: 88 % of control
T/C [7]: 86 % of control
T/C [8]: 96 % of control
T/C [9]: 90 % of control

NNc1ccc(S(=O)(=O)C(F)F)cc1
T/C [1]: 95 % of control
T/C [2]: 92 % of control
T/C [3]: 93 % of control

COC1CCC(/C=C(\C#N)C2CCC(OC)CC2)CC1 (centres undefined)
T/C [5]: 96 % of control
T/C [7]: 92 % of control
T/C [9]: 96 % of control

CS(=O)CC(O)(c1ccccc1)c1ccccc1 (centres undefined)
T/C [10]: 102 % of control
T/C [1]: 101 % of control
T/C [2]: 98 % of control
T/C [3]: 97 % of control

O[C@H](CN1CC1)[C@@H](O)CN1CC1
T/C (dose: 0.05 mg/kg/injection, schedule: Q01DX010 (oral), vehicle: other): 114 % of control
T/C (dose: 0.05 mg/kg/injection, schedule: Q01DX010 (oral), vehicle: saline): 111 % of control
T/C (dose: 0.05 mg/kg/injection, schedule: Q01DX Z (ip), vehicle: methylcellulose (MC)): 154 % of control
T/C (dose: 0.1 mg/kg/injection, schedule: Q01DX010 (oral), vehicle: saline): 118 % of control
T/C (dose: 0.1 mg/kg/injection, schedule: Q01DX Z (ip), vehicle: methylcellulose (MC)): 87 % of control
T/C (dose: 0.1 mg/kg/injection, schedule: Q01DX Z (oral), vehicle: saline): 101 % of control
T/C (dose: 0.13 mg/kg/injection, schedule: Q01DX009 (ip), vehicle: saline): 187 % of control and 192 % of control
T/C (dose: 0.2 mg/kg/injection, schedule: Q01DX010 (oral), vehicle: other): 157 % of control
T/C (dose: 0.25 mg/kg/injection, schedule: Q01DX009 (ip), vehicle: saline): 204 % of control and 206 % of control
T/C (dose: 0.3 mg/kg/injection, schedule: Q01DX Z (oral), vehicle: saline): 111 % of control
T/C (dose: 0.4 mg/kg/injection, schedule: Q01DX010 (oral), vehicle: saline): 164 % of control
T/C (dose: 0.44 mg/kg/injection, schedule: Q01DX Z (oral), vehicle: saline): 172 % of control
T/C (dose: 0.5 mg/kg/injection, schedule: Q01DX009 (ip), vehicle: saline): 221 % of control and 257 % of control
T/C (dose: 0.66 mg/kg/injection, schedule: Q01DX Z (oral), vehicle: saline): 182 % of control
T/C (dose: 0.8 mg/kg/injection, schedule: Q01DX010 (oral), vehicle: other): 88 % of control
T/C (dose: 0.8 mg/kg/injection, schedule: Q01DX010 (oral), vehicle: saline): 108 % of control
T/C (dose: 1.0 mg/kg/injection, schedule: Q01DX009 (ip), vehicle: saline): 104 % of control and 88 % of control
T/C (dose: 1.0 mg/kg/injection, schedule: Q01DX Z (ip), vehicle: methylcellulose (MC)): 121 % of control
T/C (dose: 1.0 mg/kg/injection, schedule: Q01DX Z (oral), vehicle: saline): 122 % of control
T/C (dose: 1.5 mg/kg/injection, schedule: Q01DX Z (oral), vehicle: saline): 97 % of control

CCCCOP(=O)(OCCCC)[O][Pb]([CH2]C)([CH2]C)[CH2]C
T/C (dose: 3.13 mg/kg/injection, schedule: Q01DX009 (ip), vehicle: saline with Tween-80): 101 % of control
T/C (dose: 6.25 mg/kg/injection, schedule: Q01DX009 (ip), vehicle: saline with Tween-80): 91 % of control

Cc1ccc(C)c(CN(C)C)c1O
T/C (dose: 6.0 mg/kg/injection, schedule: Q04DX003 (ip), vehicle: Klucel (hydroxypropylcellulose) (HPC)): 98 % of control
T/C (dose: 12.5 mg/kg/injection, schedule: Q04DX003 (ip), vehicle: Klucel (hydroxypropylcellulose) (HPC)): 96 % of control
T/C [11]: 89 % of control
T/C [12]: 97 % of control
T/C [13]: 107 % of control
T/C [4]: 89 % of control
T/C [14]: 100 % of control and 89 % of control

O=C(O)C(O)Cc1ccc(O)cc1 (centres undefined)
T/C [1]: 90 % of control
T/C [2]: 92 % of control
T/C [3]: 97 % of control

Nc1c(Cl)ncnc1Nc1cccc(C(=O)O)c1
T/C [10]: 98 % of control
T/C [1]: 108 % of control
T/C [2]: 102 % of control
T/C [3]: 93 % of control

O=C1CSC(=O)N1c1ccccc1
T/C (dose: 100.0 mg/kg/injection, schedule: Q01DX001 (ip), vehicle: saline with Tween-80): 107 % of control
T/C [15]: 93 % of control
T/C (dose: 200.0 mg/kg/injection, schedule: Q01DX001 (ip), vehicle: saline with Tween-80): 94 % of control
T/C [16]: 100 % of control
T/C (dose: 400.0 mg/kg/injection, schedule: Q01DX001 (ip), vehicle: saline with Tween-80): 98 % of control
T/C [17]: 89 % of control

Cc1cccc(NC(=O)Nc2cccc3ccccc23)c1C
T/C (dose: 25.0 mg/kg/injection, schedule: Q01DX009 (ip), vehicle: Klucel (hydroxypropylcellulose) (HPC)): 92 % of control
T/C [11]: 94 % of control
T/C [12]: 96 % of control
T/C [13]: 89 % of control
T/C [4]: 92 % of control
T/C [14]: 91 % of control
T/C [18]: 93 % of control
T/C [19]: 91 % of control

COC(=O)c1cccc(C)n1
T/C [1]: 94 % of control
T/C [15]: 104 % of control
T/C [2]: 100 % of control
T/C [16]: 97 % of control
T/C [3]: 96 % of control
T/C [17]: 92 % of control

O=C1NCCCCN1
T/C [20]: 100 % of control
T/C [21]: 100 % of control
T/C [22]: 101 % of control

CCOC(=O)c1ccc(NC(=S)NC(=O)c2ccccc2)cc1
T/C (dose: 100.0 mg/kg/injection, schedule: Q04DX002 (ip), vehicle: saline with Tween-80): 100 % of control
T/C (dose: 200.0 mg/kg/injection, schedule: Q04DX002 (ip), vehicle: saline with Tween-80): 94 % of control

COC(=O)C1=C(C(=O)OC)C2C=CC1C1(C)C(=O)N(C)C21C (centres undefined)
T/C (dose: 75.0 mg/kg/injection, schedule: Q04DX002 (ip), vehicle: Klucel (hydroxypropylcellulose) (HPC)): 90 % of control
T/C (dose: 300.0 mg/kg/injection, schedule: Q04DX002 (ip), vehicle: Klucel (hydroxypropylcellulose) (HPC)): 86 % of control

O=c1c2cccc3c2-c2c4c(cccc14)cc1cccc(c3=O)c21
T/C [20]: 94 % of control
T/C [21]: 89 % of control
T/C [22]: 100 % of control

O=P(OCCCl)(OCCCl)OCCCl
T/C [15]: 102 % of control
T/C [16]: 102 % of control
T/C [17]: 103 % of control

CC(C)C(C(N)=O)N1C(=O)C2C3CCC(C3)C2C1=O (centres undefined)
T/C [15]: 98 % of control
T/C [16]: 95 % of control
T/C [17]: 107 % of control

CCOC(=O)C(Cc1c[nH]c2ccccc12)(NC=O)C(=O)OCC
T/C [4]: 91 % of control
T/C [6]: 100 % of control
T/C [8]: 91 % of control

CC(C)OC(CCCl)c1ccccc1 (centres undefined)
T/C [4]: 91 % of control
T/C [14]: 96 % of control
T/C [6]: 96 % of control
T/C [18]: 102 % of control
T/C [8]: 95 % of control
T/C [19]: 96 % of control
